Laboratory results published in ChEMBL document CHEMBL5036327, “Systematic Optimization of Potent and Orally Bioavailable Purine Scaffold as a Dual Inhibitor of Toll-Like Receptors 7 and 9” (J Med Chem, 2021).
Converted amounts (≈) assume the structure as drawn.

System: not listed separately
Assay: Metabolic stability in human liver microsomes assessed as compound remaining incubated for 60 mins by LC-MS/MS analysis
Details: not given

Going from `CCN1CCN(CCCn2cnc3c(N4CCN(CC)CC4)ncnc32)CC1` to `CCN1CCN(c2nc(NCc3ccc(CN(C)C)cc3)nc3c2ncn3CCCN2CCCC2)CC1`, the remaining at 1 h falls from 75.8% to 50.7%.

Biological target: T1, Toll-like receptor 7 (Homo sapiens, UniProt Q9NYK1)
T1 sequence (Q9NYK1 whole entry): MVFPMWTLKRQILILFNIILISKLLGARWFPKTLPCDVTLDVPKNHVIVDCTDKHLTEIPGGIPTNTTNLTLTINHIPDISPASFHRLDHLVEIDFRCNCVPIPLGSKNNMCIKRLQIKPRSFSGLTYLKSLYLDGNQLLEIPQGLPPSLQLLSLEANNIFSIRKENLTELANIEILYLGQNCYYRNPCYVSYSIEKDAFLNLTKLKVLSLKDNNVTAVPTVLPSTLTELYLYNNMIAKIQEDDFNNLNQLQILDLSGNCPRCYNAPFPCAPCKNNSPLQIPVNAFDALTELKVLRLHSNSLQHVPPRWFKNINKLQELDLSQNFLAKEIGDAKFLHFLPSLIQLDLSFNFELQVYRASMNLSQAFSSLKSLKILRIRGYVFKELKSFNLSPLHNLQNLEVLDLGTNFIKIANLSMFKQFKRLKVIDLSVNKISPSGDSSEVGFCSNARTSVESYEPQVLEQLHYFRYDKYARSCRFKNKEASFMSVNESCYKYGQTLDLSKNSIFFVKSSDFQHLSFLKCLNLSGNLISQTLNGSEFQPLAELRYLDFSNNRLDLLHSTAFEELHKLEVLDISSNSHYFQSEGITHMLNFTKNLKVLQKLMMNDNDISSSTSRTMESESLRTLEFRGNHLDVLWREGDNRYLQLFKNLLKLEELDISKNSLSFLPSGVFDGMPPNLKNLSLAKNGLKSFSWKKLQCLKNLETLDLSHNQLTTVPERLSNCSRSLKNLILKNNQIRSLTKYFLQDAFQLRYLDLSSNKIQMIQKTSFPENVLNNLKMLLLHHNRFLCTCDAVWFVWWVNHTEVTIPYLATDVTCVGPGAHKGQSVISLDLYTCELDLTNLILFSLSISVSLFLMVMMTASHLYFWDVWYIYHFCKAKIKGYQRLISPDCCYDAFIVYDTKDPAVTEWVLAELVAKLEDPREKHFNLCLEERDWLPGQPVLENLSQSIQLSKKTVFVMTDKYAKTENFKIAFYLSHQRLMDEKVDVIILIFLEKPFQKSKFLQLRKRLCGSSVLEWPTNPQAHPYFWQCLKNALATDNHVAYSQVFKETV
Assay: Antagonist activity at human TLR7 expressed in HEK-blue-HTLR7 cells assessed as inhibition of CL264-induced NFkappaB activation measured after overnight incubation by SEAP-based spectrophotometry assay
Details: not given

Going from `CCN1CCN(CCCn2cnc3c(N4CCN(CC)CC4)ncnc32)CC1` to `CCN1CCN(CCCn2cnc3c(N4CCN(CC)CC4)nc(N)nc32)CC1`, the IC50 rises from 4.78 µM to 16.2 µM (3.4-fold).

First: CCN1CCN(CCCn2cnc3c(N4CCN(C(=O)c5ccccc5)CC4)nc(NCc4ccc(F)cc4)nc32)CC1
Second: CCN1CCN(CCCn2cnc3c(N4CCN(C(=O)c5ccccc5)CC4)nc(NCc4ccc(N(CC)CC)cc4)nc32)CC1
The IC50 of the first is higher: greater than 30 µM for the first, 8.4 µM for the second. The second is the more potent here.

Compared with `CCN1CCN(c2nc(N)nc3c2ncn3CCCN2CCCC2)CC1`, `CCN1CCN(CCCn2cnc3c(N4CCN(C5CCCC5)CC4)nc(N)nc32)CC1` is 2.7-fold higher in IC50: 4.94 µM for the first, 13.2 µM for the second. The first is the more potent here.

Compared with `CCN1CCN(CCCn2cnc3c(N4CCN(CC)CC4)nc(N4CCCC4)nc32)CC1`, `CCN1CCN(CCCn2cnc3c(N4CCN(C(=O)c5ccccc5)CC4)nc(N4CCCC4)nc32)CC1` is higher in IC50: 8.49 µM for the first, greater than 30 µM for the second.

Compared with `CCN1CCN(CCCn2cnc3c(N4CCN(C5CCCC5)CC4)nc(NCc4ccc(N(CC)CC)cc4)nc32)CC1`, `CCN1CCN(CCCn2cnc3c(N4CCN(C5CCCC5)CC4)nc(NCc4ccc(F)cc4)nc32)CC1` is higher in IC50: 8.13 µM for the first, greater than 30 µM for the second.

Compared with `CCN1CCN(CCCn2cnc3c(N4CCN(C(=O)C5CCCC5)CC4)nc(NCc4ccc(F)cc4)nc32)CC1`, `CCN1CCN(c2nc(NCc3ccc(CN(C)C)cc3)nc3c2ncn3CCCN2CCCC2)CC1` is lower in IC50: greater than 30 µM for the first, 17.8 µM for the second.

In the case of `CCN1CCN(CCCn2cnc3c(N4CCN(C(=O)c5ccccc5)CC4)nc(N)nc32)CC1`, the IC50 is reported as greater than 30 µM.

Biological target: T2, Toll-like receptor 9 (Homo sapiens, UniProt Q9NR96)
T2 sequence (Q9NR96 whole entry): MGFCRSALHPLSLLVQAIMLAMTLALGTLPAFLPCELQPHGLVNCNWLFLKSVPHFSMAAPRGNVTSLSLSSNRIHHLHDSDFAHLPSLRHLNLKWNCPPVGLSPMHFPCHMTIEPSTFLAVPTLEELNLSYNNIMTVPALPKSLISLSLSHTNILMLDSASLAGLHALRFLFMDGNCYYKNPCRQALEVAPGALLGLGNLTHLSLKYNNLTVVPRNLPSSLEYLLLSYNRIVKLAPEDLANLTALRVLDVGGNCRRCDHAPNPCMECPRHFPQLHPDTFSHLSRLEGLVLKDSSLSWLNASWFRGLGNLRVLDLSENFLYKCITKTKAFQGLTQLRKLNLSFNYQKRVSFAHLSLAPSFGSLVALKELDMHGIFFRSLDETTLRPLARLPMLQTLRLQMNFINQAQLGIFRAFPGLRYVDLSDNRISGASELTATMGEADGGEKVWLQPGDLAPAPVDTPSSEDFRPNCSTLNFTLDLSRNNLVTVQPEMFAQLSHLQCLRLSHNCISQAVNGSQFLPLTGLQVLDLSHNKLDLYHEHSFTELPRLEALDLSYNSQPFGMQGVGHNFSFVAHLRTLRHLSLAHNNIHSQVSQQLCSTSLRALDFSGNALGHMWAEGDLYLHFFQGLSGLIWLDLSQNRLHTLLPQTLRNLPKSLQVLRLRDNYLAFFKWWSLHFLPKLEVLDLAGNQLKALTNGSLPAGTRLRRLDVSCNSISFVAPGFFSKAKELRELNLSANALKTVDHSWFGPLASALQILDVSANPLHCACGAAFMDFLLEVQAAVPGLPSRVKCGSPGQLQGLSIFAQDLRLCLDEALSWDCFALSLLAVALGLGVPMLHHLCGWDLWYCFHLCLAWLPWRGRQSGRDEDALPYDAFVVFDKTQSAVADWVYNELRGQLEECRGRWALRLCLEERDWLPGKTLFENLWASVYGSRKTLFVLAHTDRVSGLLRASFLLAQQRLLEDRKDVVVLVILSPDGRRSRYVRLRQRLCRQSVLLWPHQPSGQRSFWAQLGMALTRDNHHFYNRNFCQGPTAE
Assay: Antagonist activity at human TLR9 expressed in […] cells assessed as inhibition of CpGB-induced NFkappaB activation measured after overnight incubation by SEAP-based spectrophotometry assay
Assay type: cell-based, HEK293
Details: not given

Going from `CCN1CCN(CCCn2cnc3c(N4CCN(CC)CC4)ncnc32)CC1` to `CCN1CCN(CCCn2cnc3c(N4CCN(CC)CC4)nc(N)nc32)CC1`, the IC50 falls from 1.19 µM to 0.26 µM (4.6-fold). The second is the more potent here.

First: CCN1CCN(CCCn2cnc3c(N4CCN(C(=O)c5ccccc5)CC4)nc(NCc4ccc(F)cc4)nc32)CC1
Second: CCN1CCN(CCCn2cnc3c(N4CCN(C(=O)c5ccccc5)CC4)nc(NCc4ccc(N(CC)CC)cc4)nc32)CC1
The IC50 of the first is higher: greater than 30 µM for the first, 3.4 µM for the second.

`CCN1CCN(c2nc(N)nc3c2ncn3CCCN2CCCC2)CC1` and `CCN1CCN(CCCn2cnc3c(N4CCN(C5CCCC5)CC4)nc(N)nc32)CC1` are within 1.5-fold of each other in IC50: 0.19 µM for the first, 0.28 µM for the second.

First: CCN1CCN(CCCn2cnc3c(N4CCN(CC)CC4)nc(N4CCCC4)nc32)CC1
Second: CCN1CCN(CCCn2cnc3c(N4CCN(C(=O)c5ccccc5)CC4)nc(N4CCCC4)nc32)CC1
The IC50 of the first is lower: 0.5 µM for the first, greater than 30 µM for the second. The first is the more potent here.

Compared with `CCN1CCN(CCCn2cnc3c(N4CCN(C5CCCC5)CC4)nc(NCc4ccc(N(CC)CC)cc4)nc32)CC1`, `CCN1CCN(CCCn2cnc3c(N4CCN(C5CCCC5)CC4)nc(NCc4ccc(F)cc4)nc32)CC1` is 1.7-fold higher in IC50: 0.15 µM for the first, 0.25 µM for the second.

Compared with `CCN1CCN(CCCn2cnc3c(N4CCN(C(=O)C5CCCC5)CC4)nc(NCc4ccc(F)cc4)nc32)CC1`, `CCN1CCN(c2nc(NCc3ccc(CN(C)C)cc3)nc3c2ncn3CCCN2CCCC2)CC1` is lower in IC50: greater than 30 µM for the first, 0.09 µM for the second.

Compound `CCN1CCN(CCCn2cnc3c(N4CCN(C(=O)c5ccccc5)CC4)nc(N)nc32)CC1` has an IC50 greater than 30 µM.

System: not listed separately
Assay: Apparent permeability across basolateral to apical side in human Caco2 cells at 10 uM measured after 10 mins by LC-MS/MS analysis
Details: Caco-2

First: CCN1CCN(CCCn2cnc3c(N4CCN(CC)CC4)ncnc32)CC1
Second: CCN1CCN(c2nc(NCc3ccc(CN(C)C)cc3)nc3c2ncn3CCCN2CCCC2)CC1
The Papp B→A at 10 min, 10 µM of the first is 6.6-fold lower: 9.28 ×10⁻⁶ cm/s for the first, 61.2 ×10⁻⁶ cm/s for the second.

System: not listed separately
Assay: Metabolic stability in human liver microsomes assessed as intrinsic clearance incubated for 60 mins by LC-MS/MS analysis
Details: not given

`CCN1CCN(CCCn2cnc3c(N4CCN(CC)CC4)ncnc32)CC1` and `CCN1CCN(c2nc(NCc3ccc(CN(C)C)cc3)nc3c2ncn3CCCN2CCCC2)CC1` are within 1.5-fold of each other in microsomal CLint at 1 h: 7.81 µL/min/mg for the first, 7.1 µL/min/mg for the second.

System: not listed separately
Assay: metabolic stability in human liver microsomes assessed as hepatic extraction ratio incubated for 60 mins by LC-MS/MS analysis
Details: not given

Compound `CCN1CCN(c2nc(NCc3ccc(CN(C)C)cc3)nc3c2ncn3CCCN2CCCC2)CC1` has a hepatic extraction ratio at 1 h of 0.241.

System: not listed separately
Assay: Apparent permeability across apical to basolateral side in human Caco2 cells at 10 uM measured after 10 mins by LC-MS/MS analysis
Details: Caco-2

First: CCN1CCN(CCCn2cnc3c(N4CCN(CC)CC4)ncnc32)CC1
Second: CCN1CCN(c2nc(NCc3ccc(CN(C)C)cc3)nc3c2ncn3CCCN2CCCC2)CC1
The Papp A→B at 10 min, 10 µM of the first is 26-fold lower: 3.57 ×10⁻⁶ cm/s for the first, 92.2 ×10⁻⁶ cm/s for the second.

System: not listed separately
Assay: Efflux ratio of apparent permeability across apical to basolateral over basolateral to apical side in human Caco2 cells measured after 10 mins by LC-MS/MS analysis
Details: Caco-2

First: CCN1CCN(CCCn2cnc3c(N4CCN(CC)CC4)ncnc32)CC1
Second: CCN1CCN(c2nc(NCc3ccc(CN(C)C)cc3)nc3c2ncn3CCCN2CCCC2)CC1
The efflux ratio at 10 min of the first is higher: 2.6 for the first, 0.7 for the second.

System: not listed separately
Assay: Stability in mouse plasma measured after 2 hrs by LC-MS/MS analysis
Details: not given

Compared with `CCN1CCN(CCCn2cnc3c(N4CCN(CC)CC4)ncnc32)CC1`, `CCN1CCN(c2nc(NCc3ccc(CN(C)C)cc3)nc3c2ncn3CCCN2CCCC2)CC1` is lower in remaining at 2 h: 99% for the first, 22% for the second.

System: not listed separately
Assay: Metabolic stability in mouse liver microsomes assessed as intrinsic clearance incubated for 60 mins by LC-MS/MS analysis
Details: not given

`CCN1CCN(c2nc(NCc3ccc(CN(C)C)cc3)nc3c2ncn3CCCN2CCCC2)CC1` gave a microsomal CLint at 1 h of 4.74 µL/min/mg.

System: not listed separately
Assay: Metabolic stability in human liver microsomes assessed as half life incubated for 60 mins by LC-MS/MS analysis
Details: not given

Work on `CCN1CCN(c2nc(NCc3ccc(CN(C)C)cc3)nc3c2ncn3CCCN2CCCC2)CC1` yielded a half-life at 1 h of 1.87 h.

System: not listed separately
Assay: physchem
Details: buffer, pH 7.4
Description: Aqueous solubility of compound at pH 7.4 measured after 18 hrs by UV-spectrometry

With `CCN1CCN(c2nc(NCc3ccc(CN(C)C)cc3)nc3c2ncn3CCCN2CCCC2)CC1` the solubility at 18 h was 136 µg/mL (≈ 269 µM).

System: not listed separately
Assay: Metabolic stability in mouse liver microsomes assessed as hepatic extraction ratio incubated for 60 mins by LC-MS/MS analysis
Details: not given

Compound `CCN1CCN(c2nc(NCc3ccc(CN(C)C)cc3)nc3c2ncn3CCCN2CCCC2)CC1` has a hepatic extraction ratio at 1 h of 0.114.

System: not listed separately
Assay: Stability in human plasma measured after 2 hrs by LC-MS/MS analysis
Details: not given

In the case of `CCN1CCN(c2nc(NCc3ccc(CN(C)C)cc3)nc3c2ncn3CCCN2CCCC2)CC1`, the remaining at 2 h is reported as 58%.
